In one data set the test system is AGS gastric cancer cell. The data set is described as follows: MTT cell growth inhibition assay, AGS gastric cancer cells. It is filed as cell-based. The conditions noted are these: Homo sapiens, mean ± SD of three experiments. The source says: (§1) Initially, we designed and synthesised seven compounds—9a and 12a1–12a6—and evaluated the anticancer activity and aqueous solubility. We evaluated the cytotoxic effects of these stilbene nitrile analogues against a panel of four human cancer cell lines (HCT-116, BEL-7402, MCF-7 and AGS) and two human non-cancerous normal cell lines (L-02 and MCF-10A), using CA-4 as a control. The compounds were screened for aqueous solubility in 0.01 M PBS using a high throughput UV method. […] It is possible that the size of the nitrogen heterocycle had little effect on the activity of these compounds. […] The aqueous solubility of all the compounds 12a1–12a6 was higher than that of 9a, particularly that of 12a1 and 12a2 containing piperazine rings. […] Of the six compounds with improved aqueous solubility, 12a1 had the best activity.
(§2) All human cell lines were used in this study. AGS gastric cancer cell, BEL-7402 liver cancer cell, HCT-116 colorectal cancer cell, L-02 normal liver cell, MCF-7 breast cancer cell, and MCF-10A normal breast cell were initially purchased from American Type Culture Collection (ATCC, Manassas, VA, USA). RPMI-1640 media, DMEM and FBS, were provided by Gibco Company. The cells were maintained in DMEM or RPMI-1640, supplemented with 10% FBS, 100 IU/mL penicillin and […] streptomycin, and at 37 °C in a humidified atmosphere containing 5% CO2.
(§3) The experiment was carried out according to the method of reference.

The subject of a further data set is MCF-7 breast cancer cell. Kind of data set: MTT cell growth inhibition assay, MCF-7 breast cancer cells. Particulars: Homo sapiens, MCF7, mean ± SD of three experiments. Format: cell-based.
From the text: as §1, §2, §3

Data set [1] has as its system HCT-116 colorectal cancer cell. The data set is described as follows: MTT cell growth inhibition assay, HCT-116 colorectal cancer cells. It is filed as cell-based, human. The conditions noted are these: for IC50: Homo sapiens, HCT-116, MTT, mean ± SD of three experiments.
From the text: as §1, §2, §3

The test system of data set [2] is BEL-7402 liver cancer cell. The data set is described as follows: MTT cell growth inhibition assay, BEL-7402 liver cancer cells. It is filed as cell-based. The conditions noted are these: Homo sapiens, mean ± SD of three experiments, read-out: IC50 BEL-7402 Hepatoma Cells.
From the text: as §1, §2, §3

Data set [3] is described as follows: Aqueous solubility in 0.01 M PBS, high throughput UV method. Format: physicochemical. The conditions noted are these: for solubility thermodynamic at 1.5 h: aqueous phosphate buffer, aqueous buffer, sodium phosphate buffer 0.01 M, pH 7.4, 22 ± 2 °C, mean ± SD; for Water solubility (in words): Figure 1.
From the text: as §1
The aqueous solubility was determined as a previously reported procedure. Put simply, a certain amount of powdered compound was placed in a 2 mL centrifuge tube and mixed with an appropriate volume of aqueous phosphate buffer (10 mM, pH 7.4) to make the whole system supersaturated. The mixtures were sonicated (KQ5200DE numerical control ultrasonic cleaner, Kunshan Ultrasonic Instrument Co., Ltd., SuZhou, China) for 20 min. After sonication, the mixture was allowed to equilibrate at RT (22 ± 2 °C) for 1.5 h with vortex shaking (1200 rpm). Then centrifuged at 3000 rpm for 15 min (1-14k, sigma, Darmstadt, Germany), the supernatant was filtered with a 0.22 µM filter membrane. And then, take 150 µL of filtrate and add it to 96-well UV plate with triplicate. Draw 150 μL of blank solution was added into plate as blank control. The 96-well UV plate prepared above was read on a Synergy HTX Multifunctional Microplate Reader (BioTek, Vermont, USA) at 294 nm. The absorbance of the sample was corrected according to the UV response of the sample and blank solution, and the corrected UV response values were used for solubility calculations by bringing into the standard curve of the compound. […]
1.5. Solubility Assessment
The aqueous solubility was determined as previously reported using the high throughput solubility screens procedure published by Bruno Bard et al [9. 10]. Put simply, a certain amount of powdered compound was placed in a 2 ml centrifuge tube and mixed with an appropriate volume of aqueous phosphate buffer (0.01 M, pH 7.4) to make the whole system supersaturated. The mixtures were sonicated (KQ5200DE numerical control ultrasonic cleaner, Kunshan Ultrasonic Instrument Co., Ltd., China) for 20 min. After sonication, the mixture was allowed to equilibrate at room temperature (22 ± 2°C) for 1.5 h with vortex shaking (1200 rpm). Then the centrifuge tube was put into the centrifuge (1-14k, sigma, Germany), centrifuged with 3000 rpm for 15 minutes, 0.22 µM filter membrane filtration supernatant, then take 150 µl filtrate and add it to 96-well UV plate, with three well for each compound. Draw 150 μL blank solution were added into 96 well-plate as blank control. The 96-well UV […]
plate prepared above was read on a SynergyHTX Multifunctional microplate reader (BioTek, USA) at 338 nm (compounds 12a-12d and 15-20) or 370 nm (compounds 9a-d). The absorbance of the sample was corrected according to the UV response of the sample and blank solution, and the corrected UV responses value were used for solubility calculations by bring into the standard curve of the compound. […]

For data set [4], the system named is MCF-10A normal breast cell. The data set is described as follows: MTT cell growth inhibition assay, MCF-10A normal breast cells. Format: cell-based. Particulars: Homo sapiens, mean ± SD of three experiments, read-out: IC50 MCF-10A Normal Breast Epithelial Cells.
From the text: as §1, §2, §3

Another data set deals with L-02 normal liver cell. Kind of data set: MTT cell growth inhibition assay, L-02 normal liver cells. It is filed as cell-based. Particulars: Homo sapiens, mean ± SD of three experiments.
From the text: as §1, §2, §3

On the set-up of data set [5]: method as in earlier work. The conditions noted are these: cited from earlier work.
A short description of data set [6]: Compound stability in rat plasma, HPLC. It is filed as in vitro ADME. The conditions noted are these: 37 °C. The protocol: Blood was collected from SD rats (200–250 g, male and female, Animal Experimental Center of Yanbian University) into heparin tubes, and supernatant plasma was collected after centrifugation.
A certain amount of 9a and 12a1 were accurately weighed and mixed with rat plasma. After incubation at 37 ℃ for 0, 6, 12, 24 and 36 h, the plasma samples were treated with methanol and analyzed by HPLC to determine their stability in plasma.
A HITACHI Primaide HPLC liquid chromatography system was equipped and used for all analyses. Chromatographic separation was performed on a Welch Ultimate XB-C18 column (3.9 mm × 150 mm, 5 μm; Welch, China). The analytes were eluted using a gradient method with a flow rate of 1 mL/min. Mobile phase A was Ultra pure water, and mobile phase B was methanol according to the following gradient: (1) The gradient elution conditions of 9a: 0 to 8 min, 55% to 67% B; 8.1 to 15 min, 67% to 90% B; 15.1 to 25 min, 55% B. (2) The gradient elution conditions of 12a1: 0 to 9 min, 55% to 65% B; 9.1 to 12 min, 65% to 75% B; 12.1 to 15 min, 75% to 85% B; 15.1 to 20 min, 90% B; 20.1 to 30 min, 55% B. The injection volume was 3 μL. The column temperature was set at 40 °C. […]
1.6. Plasma stability assessment
Prepare plasma:blood was collected from SD rats (200-250g, male and female, Animal Experimental Center of Yanbian University) into heparin tubes, and supernatant plasma was collected after centrifugation.
A certain amount of 9a and 12a1 were accurately weighed and mixed with rat plasma.
After incubation at 37℃ for 0 h, 6 h, 12 h, 24 h and 36 h, the plasma samples were treated with methanol and analyzed by HPLC to determine their stability in plasma.
Analytical instrument and conditions:
A HITACHI Primaide HPLC liquid chromatography system equipped was used for all analyses. Chromatographic separation was performed on a Welch Ultimate XB-C18 column (3.9 mm × 150 mm, 5 μm; Welch, China). The analytes were eluted using a gradient method with a flow rate of 1 mL/min. Mobile phase A was Ultra pure water, and mobile phase B was methanol according to the following gradient: (1). The gradient elution conditions of 9a: 0 to 8 minutes, 55% to 67% B; 8.1 to 15 minutes, 67% to 90% B; 15.1 to 25 minutes, 55% B. (2). The gradient elution conditions of […]

On the set-up of data set [7]: method as in PMID 12067983, PMID 12807934, PMID 14645433. Particulars: clinical data, intravenous CA-4P; cited from earlier work.
A short description of data set [8]: Configuration (cis/trans) stability. Particulars: Figure 1; cis/trans olefin configuration. The source says:
This vascular disrupting activity causes the tumor tissue vascular collapse, cutting down the oxygen and nutrient supply to tumor cells, leading to tumor cell death.
(compound 2, Figure 1). Still, the methyl group is difficult to modify chemically. […] Lipinski proposed the theory of the “Rule of 5” in 1997 [19], which is used to evaluate the pharmacokinetic characteristics of small molecule drugs.

SMILES strings stand for the structures. Where only a bound is given, the exact number is not on record here.

By IC50 is commonly meant the concentration at which inhibition is half-maximal. In general, melting point refers to the temperature of the solid-liquid transition. A word on the solubility (thermodynamic): it is solubility found after equilibrating the solid with the medium. In turn, `COc1cc(/C(C#N)=C/c2ccc(NC(=O)CN3CCNC[C@H]3C)cc2)cc(OC)c1OC.Cl` [compound 20] showed a melting point of 200 to 202 °C. Besides, the IC50 in the data set with AGS gastric cancer cell stood at 15.2 ± 0.76 µM. The compound further gave an IC50 with MCF-7 breast cancer cell of 17.3 ± 2.31 µM. In data set [1], this compound came in with a half-inhibitory concentration (IC50) of 10.5 ± 2.32 µM. For the same compound, the half-inhibitory concentration (IC50) in [2] is 6.53 ± 1.67 µM. For the same compound, the solubility (thermodynamic) at 1.5 h in [3] turned out to be 111 ± 12.3 µg/mL. Further, the half-maximal inhibitory concentration (IC50) in [4] worked out at 17.8 ± 2.78 µM. Moreover, in the data set with L-02 normal liver cell, the IC50 turned out to be 25 ± 2.94 µM.
As for `COc1ccc(/C=C\c2cc(OC)c(OC)c(OC)c2)cc1O` [CA-4, Combretastatin A-4], the IC50 with AGS gastric cancer cell turned out to be 3.42 ± 0.03 µM; with MCF-7 breast cancer cell, 0.22 ± 0.09 µM; in [1], 0.16 µM; in the data set on L-02 normal liver cell, 1.1 ± 0.03 µM. Moreover, in data set [3], the “Water solubility (in words)” value is on record as “Poor water solubility”. For the same compound, in data set [3], the solubility (thermodynamic) at 1.5 h amounted to 57.7 µg/mL. Moreover, the “Rat Plasma Protein Binding Rate” value in [5] is listed as 72.3 ± 6.9%.
Compound `COc1cc(/C(C#N)=C/c2ccc(NC(=O)CN3CCNC[C@@H]3C)cc2)cc(OC)c1OC.Cl` [compound 19] displayed a melting point of 200 to 202 °C. In the data set with AGS gastric cancer cell, this compound came in with a concentration for half-maximal inhibition (IC50) of 5.58 ± 2.33 µM. This compound displayed an IC50 in the data set with MCF-7 breast cancer cell of 15.4 ± 1.88 µM. The half-inhibitory concentration (IC50) in [1] came out at 8.18 ± 0.67 µM. The IC50 in [2] was determined as 4.72 ± 0.99 µM. Moreover, the thermodynamic solubility at 1.5 h in data set [3] is 79.5 ± 11.1 µg/mL. In addition, the IC50 in [4] is 16.3 ± 2.14 µM. In the data set on L-02 normal liver cell, this compound returned an IC50 of 23 ± 2.05 µM.
Turning to `COc1cc(/C(C#N)=C/c2ccc(N)cc2)cc(OC)c1OC` [9a, (Z)-3-(4-aminophenyl)-2-(3,4,5-trimethoxyphenyl)acrylonitrile], the IC50 was 0.12 ± 0.01 µM with AGS gastric cancer cell; 4.82 ± 1.57 µM in the data set on MCF-7 breast cancer cell; 0.02 ± 0.01 µM in data set [1]; 0.14 ± 0.01 µM in data set [2]; above 100 µM in data set [4]; 20.7 ± 3.39 µM in the data set with L-02 normal liver cell. Also, in [1] (ratio of IC50 values L-02 / HCT-116), the “Selectivity for HCT-116 cancer cells over L-02 normal cells” value came to 1000 times. Moreover, in data set [1] (ratio to CA-4), the “Activity against HCT-116 relative to CA-4” value is on record as “eight times higher”. Further, in [3], the “Water solubility (in words)” value is reported as “Poor water solubility”. In addition, in data set [3], the solubility (thermodynamic) at 1.5 h is 10.8 ± 0.7 µg/mL. For the same compound, the “Aqueous solubility relative to CA-4” value in data set [3] (ratio to CA-4) was “five times lower”. The “Improvement in aqueous solubility over compound 2” value in data set [3] (ratio to compound 2) was “two-fold”. The “Decrease of HPLC peak area in rat plasma” value in data set [6] (within 36 h, UV 294 nm) is “approximately 33%”. For the same compound, the “Plasma stability (in words)” value in [6] (rat plasma, 24 h) is listed as “retained plasma stability over 24 h”.
For the compound `COc1ccc(/C=C\c2cc(OC)c(OC)c(OC)c2)cc1OP(=O)([O-])[O-].[Na+].[Na+]` [CA-4P, reference compound], the half-life result in data set [7] is “about 30 min”. The compound also yielded an IC50 in data set [1] of 0.59 ± 0.22 µM. The “Water solubility (in words)” value in [3] is recorded as “Good water solubility”. Also, the “Configuration stability (in words)” value in data set [8] is recorded as “Configuration instability”.
For the compound `COc1cc(/C(C#N)=C/c2ccc(N)cc2C)cc(OC)c1OC` [9b], the melting point is 224 to 230 °C. The IC50 with AGS gastric cancer cell was 0.8 ± 0.14 µM. For the same compound, the 50% inhibitory concentration (IC50) with MCF-7 breast cancer cell is above 100 µM. For the same compound, the concentration for half-maximal inhibition (IC50) in data set [1] amounted to 0.16 ± 0.02 µM. In addition, the IC50 in data set [2] came to 0.16 ± 0.02 µM. Also, the thermodynamic solubility at 1.5 h in data set [3] turned out to be 1.2 ± 0.3 µg/mL. Moreover, in data set [3] (ratio to 9a), the “Decrease of aqueous solubility compared with 9a” value was “nine times”. For the same compound, the IC50 in data set [4] is above 100 µM. The compound also showed an IC50 with L-02 normal liver cell of 6.01 ± 1.35 µM.
